Source: patent publication US7601489B2, “Manganese ion regulation of reverse transcriptase activity and methods of modulating same” (The Johns Hopkins University, priority 2002, dated 2009)
Residue numbers refer to the chain shown, from its start.

Legend:
wild-type Ty1 RT = target: T1, wild-type Ty1 RT (Saccharomyces cerevisiae, UniProt P47098); assay: biochemical
T1 sequence (P47098 1218-1755 limits assumed): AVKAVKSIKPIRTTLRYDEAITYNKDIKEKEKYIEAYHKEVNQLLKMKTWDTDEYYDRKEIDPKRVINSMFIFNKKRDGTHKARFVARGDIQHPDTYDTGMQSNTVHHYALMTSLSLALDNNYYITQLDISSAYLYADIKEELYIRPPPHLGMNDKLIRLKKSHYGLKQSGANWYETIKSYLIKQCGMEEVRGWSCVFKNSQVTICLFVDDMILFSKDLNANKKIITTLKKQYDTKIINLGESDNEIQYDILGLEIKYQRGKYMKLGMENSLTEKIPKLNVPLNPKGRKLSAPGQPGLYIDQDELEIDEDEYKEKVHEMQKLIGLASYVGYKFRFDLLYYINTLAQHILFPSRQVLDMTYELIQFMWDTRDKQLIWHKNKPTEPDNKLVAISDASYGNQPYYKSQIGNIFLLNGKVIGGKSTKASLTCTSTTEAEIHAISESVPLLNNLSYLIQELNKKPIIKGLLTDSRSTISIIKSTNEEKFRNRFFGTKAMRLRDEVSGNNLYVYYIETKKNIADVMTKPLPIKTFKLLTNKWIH
Method: (§1) VLP isolation and analysis. Yeast cells harboring pGTy1-H3-mhis3AI were grown in 2% galactose at 22° C. for approximately 24 hr. Cell pellets from these 0.5 L cultures were resuspended in 5 ml buffer B (Eichinger and Boeke, Cell 54: 955-966, 1988, which is incorporated herein by reference) and VLPs were isolated. […] Reactions were set up on ice, carried out for 1 hr at 22° C. and kept on ice while being spotted onto DE81 anion-exchange paper (Whatman International Ltd.; Maidstone, England).
(§2) Protein purification and analysis. Recombinant Ty1 RT (Wilhelm et al., supra, 2000) containing a cleavable N-terminal GST-tag was expressed in E. coli and purified first by affinity chromatography and then by ion exchange chromatography, as described for HIV-1 RT (Le Grice et al., Meth. Enzymol. 262: 130-44, 1995, which is incorporated herein by reference). The GST-tagged protein was eluted from a Glutathione Sepharose 4B™ gel (Amersham) gravity column with buffer (50 mM HEPES-KOH, pH 7.8, 200 mM KCl, 10% glycerol and 2 mM DTT) containing 30 mM reduced glutathione. 50 mM HEPES-KOH, pH 7.0 with 10% glycerol was added to the protein solution to lower the pH to 7.1 and the KCl concentration to 25 mM. The recombinant Ty1 RT was further purified over a Resource S™ (Amersham) cation-exchange column using a linear KCl gradient (25-500 mM). […] Purified hetero-dimeric HIV-1 RT (Le Grice et al., supra, 1995) was acquired through the AIDS Research and Reference Reagent Program, Division of AIDS, NIAID, NIH. Purified AMV RT was purchased from Roche Molecular Biochemicals (Mannheim, Germany). The RT assays performed on the purified RTs were carried out as described above, except in the presence of 20 mM KCl, and HIV-1 RT assays were incubated at 37° C. Each reaction contained 45 ng of purified recombinant Ty1 RT or 30 ng of heterodimeric HIV-1 RT.

D211N Ty1 RT = target: T2, D211N Ty1 RT (Saccharomyces cerevisiae, UniProt P47098, D1428N); assay: RT assay on purified RT, metal ion competition and metal activation kinetics
T2 sequence (P47098 1218-1755 D1428N): T1 sequence (P47098 1218-1755 limits assumed) with D211N
From the text: Plasmid constructions. Plasmid c24-2I was generated by ligating the Stu I -Avr II fragment (4.3 kb) of c24-2 with the Sma I—Xba I fragment (6.0 kb) of pRS415 (LEU2 CEN6; Sikorski and Hieter, Genetics 122: 19-27, 1989, which is incorporated herein by reference). To simplify the cloning of the single amino-acid-substitution mutations into the PMR1 gene, c24-2L was constructed by removing the Xho I—Nde I fragment (1.2 kb) from c24-2I, filling in the ends with Klenow (New England Biolabs; Beverly Mass.), and ligating the blunt ends to recircularize the plasmid. Alanine substitution mutations, D778A and Q783A, were generated in the native PMR1 gene by replacing the Pst I—Sal I fragment (1.1 kb) of c24-2L with the corresponding fragment harboring the respective Pmr1p substitution mutation in the YEpHR1 backbone (Wei et al., J. Biol. Chem. 275: 23927-23932, 2000, which is incorporated herein by reference). The D53A substitution mutation was introduced into c24-2L by swapping in the Xba I fragment (0.3 kb) containing the Pmr1p substitution mutation in the YEpHR1 backbone (Wei et al., supra, 1999). Recombinant Ty1 RT (Wilhelm et al., supra, 2000) was PCR amplified and subcloned into the BamH I and Xho I sites of pGEX-4T-3 (Amersham Pharmacia Biotech; Piscataway N.J.). The D211N substitution mutation was generated by replacing the Sph I-Hind III fragment (0.4 kb) of the wild-type Ty1 RT expression construct with that of pJEF724 DD-DN (Uzun and Gabriel, supra, 2001).
as §1, §2

Ty1 RT [1] = target: T3, Ty1 RT (Saccharomyces cerevisiae, UniProt P47098); conditions: for Proposed activity of Ty1 RT, same metal at A site and B site: same ion at A site and B site
T3 sequence (P47098 1218-1755 limits assumed): T1 sequence (P47098 1218-1755 limits assumed)

Ty1 VLPs = Ty1 VLPs (Saccharomyces cerevisiae, UniProt P47098)
Method: as §1

AMV RT = conditions: purified AMV RT; excess Mg^2+
Method: as §1, §2

M-MuLV RT = conditions: purified M-MuLV RT, with or without its associated RNase H
Method: as §1, §2

hetero-dimeric HIV-1 RT = hetero-dimeric HIV-1 RT (Human immunodeficiency virus type 1 group M subtype B, UniProt P04585); conditions: purified hetero-dimeric HIV-1 RT; poly(rC) template; excess Mg^2+; 37° C.
Method: as §1, §2

Ty1 RT [2] = target: Ty1 RT (Saccharomyces cerevisiae, UniProt P47098, D1428N); conditions: Mn^2+ at A site, Mg^2+ at B site; unlikely for Wt.
Ty1 RT (Saccharomyces cerevisiae, UniProt P47098, D1428N), sequence (P47098 1103-1755 D1428N): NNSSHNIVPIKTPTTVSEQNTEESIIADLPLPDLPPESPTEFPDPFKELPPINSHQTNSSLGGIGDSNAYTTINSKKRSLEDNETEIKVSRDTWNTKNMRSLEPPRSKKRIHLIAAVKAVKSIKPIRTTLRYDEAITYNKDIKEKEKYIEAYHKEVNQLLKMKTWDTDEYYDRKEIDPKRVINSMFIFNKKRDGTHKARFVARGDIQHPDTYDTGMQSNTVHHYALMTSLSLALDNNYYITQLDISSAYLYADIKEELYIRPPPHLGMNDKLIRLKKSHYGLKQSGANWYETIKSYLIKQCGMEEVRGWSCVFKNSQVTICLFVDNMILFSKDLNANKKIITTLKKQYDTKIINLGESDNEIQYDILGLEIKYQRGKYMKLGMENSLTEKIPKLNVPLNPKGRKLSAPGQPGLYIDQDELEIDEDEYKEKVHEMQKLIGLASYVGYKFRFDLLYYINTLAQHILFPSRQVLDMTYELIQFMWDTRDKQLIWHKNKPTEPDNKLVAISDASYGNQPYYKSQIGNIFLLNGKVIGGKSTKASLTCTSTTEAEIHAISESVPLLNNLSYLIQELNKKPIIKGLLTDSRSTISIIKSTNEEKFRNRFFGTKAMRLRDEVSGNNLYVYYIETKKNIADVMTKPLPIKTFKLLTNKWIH

[3] = Wt. Ty1 RT, fit to Hill equation
[4] = D211N Ty1 RT, fit to Hill equation

Row | SMILES | Kd (wild-type Ty1 RT) | Proposed divalent cation binding affinity, A site (wild-type Ty1 RT; Wt. Ty1 RT) | Proposed divalent cation binding affinity, B site (wild-type Ty1 RT; Wt. Ty1 RT) | n (Hill coefficient) of metal activation (wild-type Ty1 RT; [3]) | Kd (D211N Ty1 RT) | Proposed divalent cation binding affinity, A site (D211N Ty1 RT; D211N Ty1 RT) | Proposed divalent cation binding affinity, B site (D211N Ty1 RT; D211N Ty1 RT) | n (Hill coefficient) of metal activation (D211N Ty1 RT; [4]) | Proposed activity of Ty1 RT, same metal at A site and B site (Ty1 RT [1]) | other results
1 | [Ca+2].[Cl-].[Cl-] [Ca^2+, CaCl2, reference compound] | – | – | – | – | – | – | – | – | – | Inhibition of Ty1 RT in control competition experiment (wild-type Ty1 RT; Ca^2+ substituted for Mn^2+, in presence of Mg^2+ (FIG. 4C)): no significant inhibition
2 | [Mg+2] [Mg^2+, MgCl2] | 0.13 ± 0.04 mM | very high affinity for Mg^2+ | low affinity for Mg^2+ | 1.7 ± 0.1 | 6.3 ± 0.2 mM | very low affinity for Mg^2+ | low affinity for Mg^2+ | 2.1 ± 0.1 | high | –
3 | [Mn+2] [Mn^2+, MnCl2] | 19.9 ± 1.6 mM | very low affinity for Mn^2+ | high affinity for Mn^2+ | 2.3 ± 0.2 | 0.02 ± 0.003 mM | very high affinity for Mn^2+ | high affinity for Mn^2+ | 2.1 ± 0.1 | low | Ratio of Mn^2+ to Mg^2+ that reduced RT activity by 50% (Ty1 VLPs; RNA-directed DNA polymerization, poly(rC) template, excess Mg^2+): 8×10^−3; Mn^2+-dependent inhibition with DNA template (Ty1 VLPs; poly(dC) substituted for poly(rC)): Mn^2+-dependent inhibition was also observed; Mn^2+-dependent inhibition of RT activity (AMV RT): Even more dramatic Mn^2+-dependent inhibition; Effect of Mn^2+ on RT activity (M-MuLV RT): Increased activity at low Mn^2+ concentrations; Ratio of Mn^2+ to Mg^2+ that reduced RT activity by 50% (hetero-dimeric HIV-1 RT): 7×10^−4; kcat of metal activation (wild-type Ty1 RT; [3]): 0.000156 ± 1.9e-05 s⁻¹; Mn^2+-dependent inhibition with DNA template (wild-type Ty1 RT; purified recombinant Ty1 RT, poly(dC) substituted for poly(rC)): Mn^2+-dependent inhibition was also observed; Ratio of Mn^2+ to Mg^2+ that reduced RT activity by 50% (wild-type Ty1 RT; purified recombinant Ty1 RT, poly(rC) template, excess Mg^2+): 1×10^−3; Ratio (Mn^2+ concentration to Mg^2+ concentration) at which the increase in activity peaks (D211N Ty1 RT; D211N RT, Mn^2+ added in presence of Mg^2+): 0.02; kcat of metal activation (D211N Ty1 RT; [4]): 0.000158 ± 8.3e-06 s⁻¹; Inhibition by increasing concentrations of Mn2+ (D211N Ty1 RT; D211N Ty1 RT, printed: in the presence of excess Mn^2+ (FIG. 4D)): not inhibited; Proposed activity of Ty1 RT, Mg^2+ at A site and Mn^2+ at B site (Ty1 RT [1]; Mn^2+ at B site, Mg^2+ at A site, unlikely for D211N): low; Proposed activity of Ty1 RT, Mn^2+ at A site and Mg^2+ at B site (Ty1 RT [2]): high
